Data as given in ChEMBL document CHEMBL2311454, “Discovery and evaluation of novel inhibitors of mycobacterium protein tyrosine phosphatase B from the 6-Hydroxy-benzofuran-5-carboxylic acid scaffold” (J Med Chem, 2013).

Legend:
[1] = biological target: T1, Tyrosine-protein phosphatase non-receptor type 22 (Homo sapiens, UniProt Q9Y2R2); experiment: Inhibition of LYP (unknown origin) expressed in Escherichia coli using pNPP substrate after 5 mins by spectrophotometric analysis
T1 sequence (Q9Y2R2 whole entry): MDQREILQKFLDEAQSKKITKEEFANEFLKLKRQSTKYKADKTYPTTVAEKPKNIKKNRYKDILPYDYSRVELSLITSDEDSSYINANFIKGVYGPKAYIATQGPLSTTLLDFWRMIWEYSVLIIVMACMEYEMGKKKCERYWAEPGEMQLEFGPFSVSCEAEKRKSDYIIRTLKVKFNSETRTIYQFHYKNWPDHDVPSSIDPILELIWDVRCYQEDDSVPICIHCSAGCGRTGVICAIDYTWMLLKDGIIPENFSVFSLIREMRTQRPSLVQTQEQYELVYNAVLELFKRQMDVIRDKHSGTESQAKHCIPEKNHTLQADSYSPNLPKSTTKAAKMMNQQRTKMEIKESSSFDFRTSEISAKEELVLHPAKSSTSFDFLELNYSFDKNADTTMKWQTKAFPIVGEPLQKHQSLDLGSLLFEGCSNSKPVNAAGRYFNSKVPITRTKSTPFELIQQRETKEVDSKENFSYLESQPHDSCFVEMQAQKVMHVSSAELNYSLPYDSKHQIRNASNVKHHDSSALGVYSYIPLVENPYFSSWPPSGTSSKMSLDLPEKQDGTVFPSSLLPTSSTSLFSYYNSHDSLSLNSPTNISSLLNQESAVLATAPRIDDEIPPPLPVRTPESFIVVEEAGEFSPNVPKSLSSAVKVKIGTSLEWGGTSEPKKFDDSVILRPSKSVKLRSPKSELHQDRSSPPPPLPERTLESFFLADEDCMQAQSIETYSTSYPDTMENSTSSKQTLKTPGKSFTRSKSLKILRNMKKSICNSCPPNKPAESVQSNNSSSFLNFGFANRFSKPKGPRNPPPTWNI

[2] = biological target: Tyrosine-protein phosphatase non-receptor type 6 (Homo sapiens, UniProt P29350); experiment: Inhibition of SHP1 (unknown origin) expressed in Escherichia coli using pNPP substrate after 5 mins by spectrophotometric analysis
Chain of Tyrosine-protein phosphatase non-receptor type 6 (P29350 whole entry): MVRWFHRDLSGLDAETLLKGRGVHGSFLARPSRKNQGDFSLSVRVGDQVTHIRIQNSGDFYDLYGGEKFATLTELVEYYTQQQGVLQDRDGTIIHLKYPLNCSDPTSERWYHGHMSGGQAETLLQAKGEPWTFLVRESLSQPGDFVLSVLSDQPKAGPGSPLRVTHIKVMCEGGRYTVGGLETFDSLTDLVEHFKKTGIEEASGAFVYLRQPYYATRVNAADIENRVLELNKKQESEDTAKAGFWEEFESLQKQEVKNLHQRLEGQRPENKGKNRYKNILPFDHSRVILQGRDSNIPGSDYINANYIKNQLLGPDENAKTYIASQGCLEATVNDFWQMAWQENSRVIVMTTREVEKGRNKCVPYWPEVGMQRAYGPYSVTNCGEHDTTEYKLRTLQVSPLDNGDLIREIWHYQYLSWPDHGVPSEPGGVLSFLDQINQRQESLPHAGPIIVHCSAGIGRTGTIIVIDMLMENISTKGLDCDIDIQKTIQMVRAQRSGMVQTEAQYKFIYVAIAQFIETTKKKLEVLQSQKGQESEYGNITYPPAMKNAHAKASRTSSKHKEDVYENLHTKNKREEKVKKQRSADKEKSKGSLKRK

[3] = biological target: T2, Tyrosine-protein phosphatase non-receptor type 1 (Homo sapiens, UniProt P18031); experiment: Inhibition of PTP1B (unknown origin) expressed in Escherichia coli using pNPP substrate after 5 mins by spectrophotometric analysis
T2 sequence (P18031 whole entry): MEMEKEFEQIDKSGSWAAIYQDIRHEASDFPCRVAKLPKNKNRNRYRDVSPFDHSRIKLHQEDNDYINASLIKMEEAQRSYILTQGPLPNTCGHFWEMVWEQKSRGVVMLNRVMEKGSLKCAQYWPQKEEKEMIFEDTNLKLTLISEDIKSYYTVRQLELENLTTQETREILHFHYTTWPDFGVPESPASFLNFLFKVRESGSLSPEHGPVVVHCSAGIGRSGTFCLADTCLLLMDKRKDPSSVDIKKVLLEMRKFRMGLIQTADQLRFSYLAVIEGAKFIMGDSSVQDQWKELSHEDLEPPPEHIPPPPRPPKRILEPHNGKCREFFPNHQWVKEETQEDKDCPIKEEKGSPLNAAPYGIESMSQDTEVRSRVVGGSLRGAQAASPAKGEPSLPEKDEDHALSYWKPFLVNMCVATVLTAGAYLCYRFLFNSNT

[4] = biological target: Dual specificity protein phosphatase 3 (Homo sapiens, UniProt P51452); experiment: Inhibition of VHR (unknown origin) expressed in Escherichia coli using pNPP substrate after 5 mins by spectrophotometric analysis
Chain of Dual specificity protein phosphatase 3 (P51452 whole entry): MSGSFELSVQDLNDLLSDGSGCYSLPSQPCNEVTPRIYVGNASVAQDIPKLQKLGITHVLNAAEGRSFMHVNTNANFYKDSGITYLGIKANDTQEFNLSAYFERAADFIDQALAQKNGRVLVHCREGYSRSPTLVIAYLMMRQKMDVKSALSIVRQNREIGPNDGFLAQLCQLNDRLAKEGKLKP

[5] = biological target: T3, Receptor-type tyrosine-protein phosphatase C (Homo sapiens, UniProt P08575); experiment: Inhibition of CD45 (unknown origin) expressed in Escherichia coli using pNPP substrate after 5 mins by spectrophotometric analysis
T3 sequence (P08575 whole entry): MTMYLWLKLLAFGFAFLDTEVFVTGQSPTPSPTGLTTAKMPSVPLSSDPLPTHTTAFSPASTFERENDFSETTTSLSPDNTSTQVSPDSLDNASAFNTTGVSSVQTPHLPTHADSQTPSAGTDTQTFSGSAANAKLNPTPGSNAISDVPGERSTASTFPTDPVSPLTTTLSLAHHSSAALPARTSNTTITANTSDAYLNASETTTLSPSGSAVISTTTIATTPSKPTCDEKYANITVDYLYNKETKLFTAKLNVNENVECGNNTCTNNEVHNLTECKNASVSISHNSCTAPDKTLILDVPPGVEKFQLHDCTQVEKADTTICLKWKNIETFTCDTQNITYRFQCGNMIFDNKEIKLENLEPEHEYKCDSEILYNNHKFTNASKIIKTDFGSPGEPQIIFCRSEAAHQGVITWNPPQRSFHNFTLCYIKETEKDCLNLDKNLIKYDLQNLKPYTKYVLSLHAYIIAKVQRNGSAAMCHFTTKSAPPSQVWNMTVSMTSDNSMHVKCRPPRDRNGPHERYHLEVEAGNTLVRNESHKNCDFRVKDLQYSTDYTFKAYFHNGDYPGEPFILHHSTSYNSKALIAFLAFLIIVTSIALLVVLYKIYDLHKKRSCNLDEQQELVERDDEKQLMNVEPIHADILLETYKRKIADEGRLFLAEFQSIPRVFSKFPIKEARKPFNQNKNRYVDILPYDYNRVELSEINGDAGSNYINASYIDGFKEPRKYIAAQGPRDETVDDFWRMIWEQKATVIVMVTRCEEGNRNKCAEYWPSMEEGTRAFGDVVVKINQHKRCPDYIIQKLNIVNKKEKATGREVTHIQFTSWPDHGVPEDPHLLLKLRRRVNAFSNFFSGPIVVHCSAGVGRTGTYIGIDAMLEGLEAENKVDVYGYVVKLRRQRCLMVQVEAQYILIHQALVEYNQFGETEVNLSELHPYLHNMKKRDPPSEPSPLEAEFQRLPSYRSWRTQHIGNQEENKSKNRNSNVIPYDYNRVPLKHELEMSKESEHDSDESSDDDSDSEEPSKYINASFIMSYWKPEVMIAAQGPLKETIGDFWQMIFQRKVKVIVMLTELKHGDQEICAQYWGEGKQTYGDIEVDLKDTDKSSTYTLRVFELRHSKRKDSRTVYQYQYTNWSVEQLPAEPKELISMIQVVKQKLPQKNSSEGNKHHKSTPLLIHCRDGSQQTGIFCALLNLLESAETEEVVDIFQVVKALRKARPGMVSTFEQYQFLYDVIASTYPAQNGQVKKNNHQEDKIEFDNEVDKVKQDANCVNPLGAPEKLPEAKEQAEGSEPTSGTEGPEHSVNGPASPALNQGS

Row | Structure (SMILES) | IC50 [1] [µM] | IC50 [2] [µM] | IC50 [3] [µM] | IC50 [4] [µM] | IC50 [5] [µM]
1 | O=C(O)c1cc2c(C#CCO)c(-c3ccccc3)oc2cc1O | > 100 | > 100 | > 100 | > 100 | > 100
2 | O=C(O)c1cc2c(CCc3cccc(C(F)(F)F)c3)c(-c3ccccc3)oc2cc1O | 3.5 |  | 7.4 | 6.2 | 10.1
3 | O=C(O)c1cc2c(CCc3ccc(Oc4ccccc4)cc3)c(-c3ccccc3)oc2cc1O | 2.2 | 3.7 | 8 | 6.3 | 14.2
4 | O=C(O)c1cc2c(/C=C\c3cc(F)cc(F)c3)c(-c3ccccc3)oc2cc1O | 3.7 |  | 8 | 8.6 | 13.1
5 | C[C@]12CCC(=O)C=C1CC[C@@H]1[C@@H]2CC[C@@]2(C)[C@H]1CC[C@]2(O)C#Cc1c(-c2ccccc2)oc2cc(O)c(C(=O)O)cc12 | 12.2 | > 100 | > 50 | > 100 | > 100
6 | O=C(O)c1cc2c(CCc3ccc(OC(F)(F)F)cc3)c(-c3ccccc3)oc2cc1O | 4.1 | 7.1 | 8.4 | 6.7 | 18.9
7 | C#Cc1c(-c2ccccc2)oc2cc(O)c(C(=O)O)cc12 | 50 | > 50 | > 50 | > 50 | 80
8 | O=C(O)c1cc2c(CCc3cccc(F)c3)c(-c3ccccc3)oc2cc1O | 12.4 | 11.5 | 60 | 22 | 120
